Results published in US6159940A, “Method for modulating hemopoiesis” (Immunotech Developments Inc., priority 1999, dated 2000).

Tests used:
[1] = Toxicity study: single 0.15 g/kg or 10 μg/kg for 5 days, cellular systems on day 14; format: in vivo, male mice
Procedure: To determine the peptide toxicity, male mice received single injections of the peptide in the dose of 0.15 g per kg body weight, which was 15,000 times as large as the therapeutic dose with favourable effect in post-irradiation regeneration of hemopoietic progenitors. The second group of mice received daily peptide injections in the dose of 10 μg/kg (the therapeutical dose) for 5 days. […] On the 14-th day after the peptide injection 10 mice from each group were killed to determine the condition of their cellular systems. Nucleated cells were counted in spleen and thymus (per mg of organ weight), bone marrow, blood (per ml). Erythrocyte count and hemoglobin level were determined.

[2] = system: lymphocytes in guinea pigs; assay: E-rosette formation test after trypsin treatment; format: cell-based
Excerpt: The biological action of the novel peptide was studied in guinea pigs in the conventional E-rosette formation test.

[3] = system: hemopoietic progenitor cells; assay: Exogenous spleen colonies from irradiated bone marrow cells; format: in vivo, mice; conditions: day 9
Procedure: For this purpose, known methods using exogenous spleen colonies were applied. […] Different doses of the peptide were injected intravenously (i.v.), intraperitoneally (i.p.), or intramuscularly (i.m.) to lethally irradiated recipients an hour after the injections of irradiated bone marrow. Colonies were counted on day 9. 350 mice were used as test animals. The data for each group are the average of three tests.

[4] = system: karyocytes in femoral bone marrow; assay: Bone marrow regeneration in irradiated mice (4 Gy), scheme 2; format: in vivo
Procedure: (§1) Irradiated mice (4 Gy) received intramuscular injections of the peptide in the dose of 10 μg/kg according to 2 schemes.
(§2) b) According to scheme 2, the peptide injections were made starting from the 3rd day after the irradiation, at the same time of maximum depletion of the pool of mature nucleated cells and the bone marrow. The groups of mice were formed in the same way as in the previous scheme. […] Tables 9 and 10 present the data on karyocyte and lymphocyte counts in blood (per 1 mm^3) of mice treated according to scheme 2.
The data in Table 11 reflect the process of bone marrow regeneration in control and test irradiated (4 Gy) mice treated with peptide according to scheme 2. The regeneration was equally intensive in all animal groups till the 11th day, from day 14 to day 18 the nucleated cells counts were considerably higher in the bone marrow of test mice.

nucleated blood cells = assay: Karyocyte and lymphocyte counts in blood of irradiated mice (4 Gy), scheme 2; format: in vivo
Procedure: as §1, §2

[5] = Effect on kidney function (anti-diuretic activity); parameters: species or system white mice; conditions: mouse, in vivo
Excerpt: The anti-diuretic activity of H-Ile-Glu-Trp-OH was studied in 40 white mice.

[6] = 10 mcg/kg × 5 injections, day 14

H-Ile-Glu-Trp-OH
Survival for 30 days ([1]; 10 μg/kg daily for 5 days): Not an animal died
Karyocyte Count, Spleen ([1]; 0.15 g/kg, day 14): 2280 ± 30 10^3 /mg
Karyocyte Count, Thymus ([1]; 0.15 g/kg, day 14): 3030 ± 250 10^3 /mg
erythrocyte ([1]; 0.15 g/kg, day 14): 8100 ± 600 10^3
hemoglobin ([1]; 0.15 g/kg, day 14): 10.8 ± 0.7 g/dL
karyocyte count bone marrow ([1]; 0.15 g/kg, day 14): 2.39 ± 0.25 × 10^7 /femur
karyocytes % ([1]; 0.15 g/kg, day 14): 62.0 ± 3.4%
karyocytes (blood) ([1]; 0.15 g/kg, day 14): 5.4 ± 0.7 10^3
karyocytes absolute ([1]; 0.15 g/kg, day 14): 3348
weight ([1]; 0.15 g/kg, day 14): 21-22.0
Karyocyte Count, Spleen [1, 6]: 1760 ± 100 10^3 /mg
Karyocyte Count, Thymus [1, 6]: 2780 ± 340 10^3 /mg
erythrocyte [1, 6]: 8400 ± 200 10^3
hemoglobin [1, 6]: 11.5 ± 0.2 g/dL
karyocyte count bone marrow [1, 6]: 1.94 ± 0.2 × 10^7 /femur
karyocytes % [1, 6]: 58.6 ± 3.6%
karyocytes (blood) [1, 6]: 10.1 ± 0.8 10^3
weight [1, 6]: 21-22.5
LD50 ([1]; not found): > 15,000 as large as the therapeutical one
growth of average weight by the end of the study ([1]; same as in control): 2 g
Survival for 30 days ([1]; single injection 0.15 g per kg): Not an animal died
in vitro activity relative to other known compounds [2]: 10^3 times
E-rosette formation after treatment with trypsin and compound ([2]; 10^-6 mg/ml): 61.4
E-rosette formation after treatment with trypsin and compound ([2]; 10^-7 mg/ml): 63.9
E-rosette formation after treatment with trypsin and compound ([2]; 10^-8 mg/ml): 64.8
E-rosette formation after treatment with trypsin and compound ([2]; 10^-9 mg/ml): 60.2
E-rosette formation after treatment with trypsin and compound ([2]; 10^-10 mg/ml): 37.5
E-rosette formation after treatment with trypsin and compound ([2]; 10^-11 mg/ml): 40.0
E-rosette formation after treatment with trypsin and compound ([2]; 10^-12 mg/ml): 34.3
Colony Count ([3]; bone marrow 1 Gy, 2.5 mcg/Kg i.v.): 6.0 ± 0.7
Colony Count ([3]; bone marrow 1 Gy, 10 mcg/Kg i.m.): 10.6 ± 0.8
Colony Count ([3]; bone marrow 1 Gy, 10 mcg/Kg i.p.): 8.2 ± 0.7
Colony Count ([3]; bone marrow 1 Gy, 10 mcg/Kg i.v.): 8.7 ± 0.4
Colony Count ([3]; bone marrow 1 Gy, 25 mcg/Kg i.v.): 7.6 ± 0.4
Colony Count ([3]; bone marrow 1 Gy, 50 mcg/Kg i.v.): 7.1 ± 0.5
Colony Count ([3]; bone marrow 1 Gy, 100 mcg/Kg i.v.): 6.0 ± 0.5
Colony Count ([3]; bone marrow 1 Gy, 200 mcg/Kg i.v.): 5.3 ± 0.7
Colony Count ([3]; bone marrow 1 Gy, 500 mcg/Kg i.v.): 4.2 ± 0.3
Colony Count ([3]; bone marrow 3 Gy, 10 mcg/Kg i.v.): 2.3 ± 0.3
Karyocyte Count in Femoral Bone Marrow ([4]; scheme 2, 1 Time, Day 7): 16.4 ± 0.3 × 10^6
Karyocyte Count in Femoral Bone Marrow ([4]; scheme 2, 1 Time, Day 11): 17.9 ± 1.8 × 10^6
Karyocyte Count in Femoral Bone Marrow ([4]; scheme 2, 1 Time, Day 14): 18.7 ± 1.1 × 10^6
Karyocyte Count in Femoral Bone Marrow ([4]; scheme 2, 1 Time, Day 18): 18.0 ± 0.4 × 10^6
Karyocyte Count in Femoral Bone Marrow ([4]; scheme 2, 1 Time, Day 21): 22.4 ± 2.2 × 10^6
Karyocyte Count in Femoral Bone Marrow ([4]; scheme 2, 2 Times, Day 7): 14.9 ± 1.7 × 10^6
Karyocyte Count in Femoral Bone Marrow ([4]; scheme 2, 2 Times, Day 11): 18.6 ± 2.3 × 10^6
Karyocyte Count in Femoral Bone Marrow ([4]; scheme 2, 2 Times, Day 14): 14.1 ± 1.7 × 10^6
Karyocyte Count in Femoral Bone Marrow ([4]; scheme 2, 2 Times, Day 18): 17.2 ± 1.0 × 10^6
Karyocyte Count in Femoral Bone Marrow ([4]; scheme 2, 2 Times, Day 21): 18.9 ± 0.6 × 10^6
Karyocyte Count in Femoral Bone Marrow ([4]; scheme 2, 3 Times, Day 7): 12.25 ± 1.3 × 10^6
Karyocyte Count in Femoral Bone Marrow ([4]; scheme 2, 3 Times, Day 11): 18.5 ± 2.9 × 10^6
Karyocyte Count in Femoral Bone Marrow ([4]; scheme 2, 3 Times, Day 14): 16.9 ± 0.8 × 10^6
Karyocyte Count in Femoral Bone Marrow ([4]; scheme 2, 3 Times, Day 18): 16.9 ± 0.8 × 10^6
Karyocyte Count in Femoral Bone Marrow ([4]; scheme 2, 3 Times, Day 21): 19.5 ± 1.6 × 10^6
Karyocyte Count in Femoral Bone Marrow ([4]; scheme 2, 4 Times, Day 11): 20.3 ± 1.3 × 10^6
Karyocyte Count in Femoral Bone Marrow ([4]; scheme 2, 4 Times, Day 14): 18.9 ± 0.2 × 10^6
Karyocyte Count in Femoral Bone Marrow ([4]; scheme 2, 4 Times, Day 18): 17.7 ± 1.2 × 10^6
Karyocyte Count in Femoral Bone Marrow ([4]; scheme 2, 4 Times, Day 21): 20.0 ± 1.8 × 10^6
Karyocyte Count in Blood (nucleated blood cells; scheme 2, 1 Time, Day 7): 1.64 ± 0.2 × 10^3
Lymphocyte in Blood (Absolute) (nucleated blood cells; scheme 2, 1 Time, Day 7): 232
Lymphocyte in Blood, % (nucleated blood cells; scheme 2, 1 Time, Day 7): 45.1 ± 3.9%
Karyocyte Count in Blood (nucleated blood cells; scheme 2, 1 Time, Day 11): 1.88 ± 0.3 × 10^3
Lymphocyte in Blood (Absolute) (nucleated blood cells; scheme 2, 1 Time, Day 11): 1365
Lymphocyte in Blood, % (nucleated blood cells; scheme 2, 1 Time, Day 11): 49.2 ± 3.8%
Karyocyte Count in Blood (nucleated blood cells; scheme 2, 1 Time, Day 14): 1.50 ± 0.2 × 10^3
Lymphocyte in Blood (Absolute) (nucleated blood cells; scheme 2, 1 Time, Day 14): 1118
Lymphocyte in Blood, % (nucleated blood cells; scheme 2, 1 Time, Day 14): 43.3 ± 3.2%
Karyocyte Count in Blood (nucleated blood cells; scheme 2, 1 Time, Day 18): 2.62 ± 0.2 × 10^3
Lymphocyte in Blood (Absolute) (nucleated blood cells; scheme 2, 1 Time, Day 18): 2412
Lymphocyte in Blood, % (nucleated blood cells; scheme 2, 1 Time, Day 18): 30.6 ± 2.9%
Karyocyte Count in Blood (nucleated blood cells; scheme 2, 1 Time, Day 21): 1.63 ± 0.2 × 10^3
Lymphocyte in Blood (Absolute) (nucleated blood cells; scheme 2, 1 Time, Day 21): 743
Lymphocyte in Blood, % (nucleated blood cells; scheme 2, 1 Time, Day 21): 45.6 ± 3.9%
Karyocyte Count in Blood (nucleated blood cells; scheme 2, 2 Times, Day 7): 1.33 ± 0.2 × 10^3
Lymphocyte in Blood (Absolute) (nucleated blood cells; scheme 2, 2 Times, Day 7): 701
Lymphocyte in Blood, % (nucleated blood cells; scheme 2, 2 Times, Day 7): 52.7 ± 2.9%
Karyocyte Count in Blood (nucleated blood cells; scheme 2, 2 Times, Day 11): 2.03 ± 0.3 × 10^3
Lymphocyte in Blood (Absolute) (nucleated blood cells; scheme 2, 2 Times, Day 11): 915
Lymphocyte in Blood, % (nucleated blood cells; scheme 2, 2 Times, Day 11): 45.1 ± 5.4%
Karyocyte Count in Blood (nucleated blood cells; scheme 2, 2 Times, Day 14): 1.60 ± 0.2 × 10^3
Lymphocyte in Blood (Absolute) (nucleated blood cells; scheme 2, 2 Times, Day 14): 619
Lymphocyte in Blood, % (nucleated blood cells; scheme 2, 2 Times, Day 14): 38.8 ± 2.2%
Karyocyte Count in Blood (nucleated blood cells; scheme 2, 2 Times, Day 18): 1.67 ± 0.1 × 10^3
Lymphocyte in Blood (Absolute) (nucleated blood cells; scheme 2, 2 Times, Day 18): 703
Lymphocyte in Blood, % (nucleated blood cells; scheme 2, 2 Times, Day 18): 42.1 ± 1.4%
Karyocyte Count in Blood (nucleated blood cells; scheme 2, 2 Times, Day 21): 2.70 ± 0.2 × 10^3
Lymphocyte in Blood (Absolute) (nucleated blood cells; scheme 2, 2 Times, Day 21): 1220
Lymphocyte in Blood, % (nucleated blood cells; scheme 2, 2 Times, Day 21): 45.2 ± 2.3%
Karyocyte Count in Blood (nucleated blood cells; scheme 2, 3 Times, Day 7): 2.22 ± 0.3 × 10^3
Lymphocyte in Blood (Absolute) (nucleated blood cells; scheme 2, 3 Times, Day 7): 968
Lymphocyte in Blood, % (nucleated blood cells; scheme 2, 3 Times, Day 7): 43.6 ± 2.1%
Karyocyte Count in Blood (nucleated blood cells; scheme 2, 3 Times, Day 11): 1.94 ± 0.2 × 10^3
Lymphocyte in Blood (Absolute) (nucleated blood cells; scheme 2, 3 Times, Day 11): 892
Lymphocyte in Blood, % (nucleated blood cells; scheme 2, 3 Times, Day 11): 46.3 ± 5.4%
Karyocyte Count in Blood (nucleated blood cells; scheme 2, 3 Times, Day 14): 1.50 ± 0.2 × 10^3
Lymphocyte in Blood (Absolute) (nucleated blood cells; scheme 2, 3 Times, Day 14): 744
Lymphocyte in Blood, % (nucleated blood cells; scheme 2, 3 Times, Day 14): 47.7 ± 6.1%
Karyocyte Count in Blood (nucleated blood cells; scheme 2, 3 Times, Day 18): 2.07 ± 0.2 × 10^3
Lymphocyte in Blood (Absolute) (nucleated blood cells; scheme 2, 3 Times, Day 18): 7353
Lymphocyte in Blood, % (nucleated blood cells; scheme 2, 3 Times, Day 18): 35.5 ± 1.4%
Karyocyte Count in Blood (nucleated blood cells; scheme 2, 3 Times, Day 21): 2.45 ± 0.4 × 10^3
Lymphocyte in Blood (Absolute) (nucleated blood cells; scheme 2, 3 Times, Day 21): 1289
Lymphocyte in Blood, % (nucleated blood cells; scheme 2, 3 Times, Day 21): 52.5 ± 3.2%
Karyocyte Count in Blood (nucleated blood cells; scheme 2, 4 Times, Day 7): 2.71 ± 0.4 × 10^3
Lymphocyte in Blood (Absolute) (nucleated blood cells; scheme 2, 4 Times, Day 7): 1231
Lymphocyte in Blood, % (nucleated blood cells; scheme 2, 4 Times, Day 7): 45.6 ± 2.5%
Karyocyte Count in Blood (nucleated blood cells; scheme 2, 4 Times, Day 11): 3.03 ± 0.5 × 10^3
Lymphocyte in Blood (Absolute) (nucleated blood cells; scheme 2, 4 Times, Day 11): 1406
Lymphocyte in Blood, % (nucleated blood cells; scheme 2, 4 Times, Day 11): 42.6 ± 3.6%
Karyocyte Count in Blood (nucleated blood cells; scheme 2, 4 Times, Day 14): 1.17 ± 0.1 × 10^3
Lymphocyte in Blood (Absolute) (nucleated blood cells; scheme 2, 4 Times, Day 14): 515
Lymphocyte in Blood, % (nucleated blood cells; scheme 2, 4 Times, Day 14): 44.0 ± 3.1%
Karyocyte Count in Blood (nucleated blood cells; scheme 2, 4 Times, Day 18): 2.48 ± 0.1 × 10^3
Lymphocyte in Blood (Absolute) (nucleated blood cells; scheme 2, 4 Times, Day 18): 1116
Lymphocyte in Blood, % (nucleated blood cells; scheme 2, 4 Times, Day 18): 45.1 ± 1.8%
Karyocyte Count in Blood (nucleated blood cells; scheme 2, 4 Times, Day 21): 1.66 ± 0.2 × 10^3
Lymphocyte in Blood (Absolute) (nucleated blood cells; scheme 2, 4 Times, Day 21): 789
Lymphocyte in Blood, % (nucleated blood cells; scheme 2, 4 Times, Day 21): 47.5 ± 5.3%
anti-diuretic activity [5]: not to have any anti-diuretic activity
